One series has as its target T1, M. tuberculosis InhA (Mycobacterium tuberculosis, UniProt P9WGR1).
T1 construct: made in house; host or cells: E. coli
The series is described as follows: InhA enzymatic inhibition assay (NADH oxidation at 340 nm). The conditions noted are these: for inhibition at 0.01 µM: compound at 10 nM, read-out: InhA enzyme inhibition percentage at 10 nM. The format is biochemical.

In series [1] the target is mycobacterium tuberculosis InhA enzyme. Details: method as in doi:10.1016/j.molstruc.2020.129148. The settings on record: literature lead structures; read-out: IC50 (InhA inhibitors, lead structures); cited from earlier work.
Where [2] appears, read: 70 nM InhA, 2 h pre-incubation, pH 6.8, 25 °C, 35 μM trans-2-decenoyl-CoA, 200 μM NADH, read-out: IC50, inhibitory effect against InhA.

pIC50: −log10 of the molar value. Read-outs that look alike come from different tables or passages of the source.

T1 sequence (P9WGR1 whole entry, looked up): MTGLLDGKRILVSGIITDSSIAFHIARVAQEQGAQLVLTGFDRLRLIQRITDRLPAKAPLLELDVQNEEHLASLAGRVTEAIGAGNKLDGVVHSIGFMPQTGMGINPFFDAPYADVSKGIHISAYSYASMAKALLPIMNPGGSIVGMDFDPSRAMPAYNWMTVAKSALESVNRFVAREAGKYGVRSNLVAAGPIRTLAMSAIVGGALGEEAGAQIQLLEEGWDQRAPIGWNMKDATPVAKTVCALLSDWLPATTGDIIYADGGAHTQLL

As for `Sc1nnc(Cc2ccccc2)n1/N=C/c1cccs1` [4a, 5.-benzyl-4-((thiophen-2-ylmethylene)amino)-2,4-dihydro-3H-1,2,4-triazole-3-thione], the melting point (commonly the temperature of the solid-liquid transition) was in the range of 184 to 186 °C. The pIC50 (as a rule, the IC50 on a negative log10 scale, so that one unit is a factor of ten) at M. tuberculosis InhA (setting [2]) was 7.27.

Turning to `Sc1nnc(Cc2ccccc2)n1/N=C/c1cccc2c1OCO2` [4b], the melting point worked out at 164 °C. Also, the pIC50 on M. tuberculosis InhA (setting [2]) was 8.04.

Consider `S=c1[nH]nc(Cc2ccccc2)n1/N=C/c1ccc(N2CCOCC2)cc1` [4c, (E)-5-benzyl-4-((4-morpholinobenzylidene)amino)-2,4-dihydro-3H-1,2,4-triazole-3-thione], for which the pIC50 at M. tuberculosis InhA (setting [2]) was 8.09.

As for `C#CCSc1nnc(Cc2ccccc2)n1/N=C/c1cccs1` [5a, (E)-N-(3-benzyl-5-(prop-2-yn-1-ylthio)-4H-1,2,4-triazol-4-yl)-1-(thiophen-2-yl)methanimine], the melting point was 98 °C. Moreover, the pIC50 at M. tuberculosis InhA (setting [2]) was 8.25.

For `C#CCSc1nnc(Cc2ccccc2)n1/N=C/c1cccc2c1OCO2` [5b, (E)-1-(benzo[d][1,3]dioxol-4-yl)-N-(3-benzyl-5-(prop-2-yn-1-ylthio)-4H-1,2,4-triazol-4-yl)methanimine], the melting point worked out at 140 °C. Moreover, at M. tuberculosis InhA (setting [2]), the pIC50 was 9.18. For the same compound, at M. tuberculosis InhA, the inhibition – broadly, the change of the read-out against control, counted positive when it falls – at 0.01 µM stood at 100%.

The compound `C#CCSc1nnc(Cc2ccccc2)n1/N=C/c1ccc(N2CCOCC2)cc1` [5c] had a melting point of 236 °C. At M. tuberculosis InhA (setting [2]), the pIC50 was 9.64. On M. tuberculosis InhA, the inhibition at 0.01 µM is 100%.

The compound `O=C(O)c1ccc(-n2cc(CSc3nnc(Cc4ccccc4)n3/N=C/c3cccs3)nn2)cc1` [7a, (E)-4-(4-(((5-benzyl-4-((thiophen-2-ylmethylene)amino)-4H-1,2,4-triazol-3-yl)thio)methyl)-1H-1,2,3-triazol-1-yl)benzoic acid] came in with a melting point of 196 °C. Also, on M. tuberculosis InhA (setting [2]), the pIC50 was 8.21.

`CC(=O)c1ccc(-n2cc(CSc3nnc(Cc4ccccc4)n3/N=C/c3cccs3)nn2)cc1` [7b] displayed a melting point of 196 °C. Further, the pIC50 at M. tuberculosis InhA is 7.90.

`O=C(O)c1ccc(-n2cc(CSc3nnc(Cc4ccccc4)n3/N=C/c3cccc4c3OCO4)nn2)cc1` [7c, (E)-4-(4-(((4-((benzo[d][1,3]dioxol-4-ylmethylene)amino)-5-benzyl-4H-1,2,4-triazol-3-yl)thio)methyl)-1H-1,2,3-triazol-1-yl)benzoic acid] showed a melting point of 188 °C. For the same compound, on M. tuberculosis InhA, the pIC50 was 10.13 and the inhibition at 0.01 µM was found to be 100%.

Compound `CC(=O)c1ccc(-n2cc(CSc3nnc(Cc4ccccc4)n3/N=C/c3cccc4c3OCO4)nn2)cc1` [7d] displayed a melting point of 196 °C. On M. tuberculosis InhA, the inhibition at 0.01 µM was determined as 100%. Besides, on M. tuberculosis InhA (read-out: IC50, inhibitory effect against InhA, 70 nM InhA, 2 h pre-incubation, pH 6.8, 25 °C, 35 μM trans-2-decenoyl-CoA, 200 μM NADH), the pIC50 was 9.74.

`O=C(O)c1ccc(-n2cc(CSc3nnc(Cc4ccccc4)n3/N=C/c3ccc(N4CCOCC4)cc3)nn2)cc1` [7e, (E)-4-(4-(((5-benzyl-4-((4-morpholinobenzylidene)amino)-4H-1,2,4-triazol-3-yl)thio)methyl)-1H-1,2,3-triazol-1-yl)benzoic acid] had a melting point of 192 °C. For the same compound, on M. tuberculosis InhA, the pIC50 is 9.89 and the inhibition at 0.01 µM was 100%.

Take `CC(=O)c1ccc(-n2cc(CSc3nnc(Cc4ccccc4)n3/N=C/c3ccc(N4CCOCC4)cc3)nn2)cc1` [7f]: the melting point was 198 to 200 °C. The pIC50 on M. tuberculosis InhA (setting [2]) is 9.60. Further, the inhibition at 0.01 µM at M. tuberculosis InhA amounted to 100%.

Regarding `Cc1nc(C)n(CCCNc2ccc(C(=O)Nc3ccc(F)c(Oc4ccccc4)c3)cn2)n1` [Lead structure A], the pIC50 in series [1] was 6.04.

As for `CNC(=O)CN(Cc1ccc(F)cc1)C(=O)C[C@H]1CC[C@@H](NC(=O)c2nnn(Cc3ccccc3)c2C)CC1` [Lead structure B], the pIC50 in series [1] was 7.24.

The record behind these values is article PMC9103244, “Novel Hybrid 1,2,4- and 1,2,3-Triazoles Targeting Mycobacterium Tuberculosis Enoyl Acyl Carrier Protein Reductase (InhA): Design, Synthesis, and Molecular Docking” (International Journal of Molecular Sciences, 2022).
